According to US10202361B2, “Pyridazinones as herbicides” (E I DU PONT DE NEMOURS AND COMPANY, priority 2014, dated 2019):

Key:
Test in all cases: Test E pre-/postemergence greenhouse herbicide test
Format in all cases: in vivo
[1] = tested on: arrowleaf sida (Sida rhombifolia); conditions: scale 0 to 100
Text: (§1) Seeds of plant species selected from corn (Zea mays), soybean (Glycine max), lambsquarters (Chenopodium album), poinsettia, wild (wild poinsettia, Euphorbia heterophylla), pigweed, palmer (palmer pigweed, Amaranthus palmeri), waterhemp (common waterhemp, Amaranthus rudis), surinam grass (Brachiaria decumbens), crabgrass, large (large crabgrass Digitaria sanguinalis), crabgrass, Brazil (Brazilian crabgrass, Digitaria horizontalis), panicum, fall (fall panicum, Panicum dichotomiflorum), foxtail, giant (giant foxtail, Setaria faberii), foxtail, green (green foxtail, Setaria viridis), goosegrass (Eleusine indica), johnsongrass (Sorghum halepense), ragweed (common ragweed, Ambrosia elatior), barnyardgrass (Echinochloa crus-galli), sandbur (southern sandbur, Cenchrus echinatus), arrowleaf sida (Sida rhombifolia), ryegrass, Italian (Italian ryegrass, Lolium multiflorum), dayflower, VA (Virginia dayflower, Commelina virginica), field bindweed (Convolvulus arvensis), cocklebur (common cocklebur, Xanthium strumarium), morningglory (Ipomoea coccinea), nightshade (eastern black nightshade, Solanum ptycanthum), kochia (Kochia scoparia), nutsedge, yellow (yellow nutsedge, Cyperus esculentus), smartweed (ladysthumb smartweed, Polygonum persicaria), velvetleaf (Abutilon theophrasti), and beggarticks (hairy beggarticks, Bidens pilosa), were planted into a silt loam soil and treated preemergence with test chemicals formulated in a non-phytotoxic solvent mixture which included a surfactant.
(§2) At the same time, plants from these crop and weed species and also waterhemp_RES1, (ALS & Triazine resistant common waterhemp, Amaranthus rudis), and waterhemp_RES2, (ALS & HPPD resistant common waterhemp, Amaranthus rudis) were planted in pots containing Redi-Earth® planting medium (Scotts Company, 14111 Scottslawn Road, Marysville, Ohio 43041) comprising spaghnum peat moss, vermiculite, wetting agent and starter nutrients were treated with postemergence applications of test chemicals formulated in the same manner. Plants ranged in height from 2 to 18 cm for postemergence treatments (1- to 4-leaf stage). Treated plants and controls were maintained in a greenhouse for 14 to 21 d, after which time all species were compared to controls and visually evaluated. Plant response ratings, summarized in Table E, are based on a scale of 0 to 100 where 0 is no effect and 100 is complete control. A dash (-) response means no test result.

[2] = tested on: barnyardgrass (Echinochloa crus-galli); conditions: scale 0 to 100
Text: as §1, §2

[3] = tested on: beggarticks (hairy beggarticks, Bidens pilosa); conditions: scale 0 to 100
Text: as §1, §2

[4] = tested on: field bindweed (Convolvulus arvensis); conditions: scale 0 to 100
Text: as §1, §2

[5] = tested on: foxtail, giant (giant foxtail, Setaria faberii); conditions: Preemergence, scale 0 to 100
Text: as §1, §2

[6] = tested on: kochia (Kochia scoparia); conditions: Preemergence, scale 0 to 100
Text: as §1, §2

[7] = tested on: morningglory (Ipomoea coccinea); conditions: Preemergence, scale 0 to 100
Text: as §1, §2

[8] = tested on: nightshade (eastern black nightshade, Solanum ptycanthum); conditions: Preemergence, scale 0 to 100
Text: as §1, §2

[9] = tested on: panicum, fall (fall panicum, Panicum dichotomiflorum); conditions: scale 0 to 100
Text: as §1, §2

[10] = tested on: pigweed, palmer (palmer pigweed, Amaranthus palmeri); conditions: scale 0 to 100
Text: as §1, §2

[11] = tested on: ragweed (common ragweed, Ambrosia elatior); conditions: Preemergence, scale 0 to 100
Text: as §1, §2

[12] = tested on: ryegrass, Italian (Italian ryegrass, Lolium multiflorum); conditions: scale 0 to 100
Text: as §1, §2

[13] = tested on: sandbur (southern sandbur, Cenchrus echinatus); conditions: scale 0 to 100
Text: as §1, §2

[14] = tested on: velvetleaf (Abutilon theophrasti); conditions: Preemergence, scale 0 to 100
Text: as §1, §2

[15] = tested on: waterhemp (common waterhemp, Amaranthus rudis); conditions: scale 0 to 100
Text: as §1, §2

COc1cc(=O)n(-c2ccc(F)cc2)nc1Cc1ccnc(C(F)(F)F)c1 [Compound 17, 2-(4-fluorophenyl)-5-methoxy-6-[[2-(trifluoromethyl)-4-pyridinyl]methyl]-3 (2H)-pyridazinone]
Plant response rating: Arrowleaf Sida ([1]; Postemergence, 16 g ai/ha): 30
Plant response rating: Arrowleaf Sida ([1]; Postemergence, 31 g ai/ha): 40
Plant response rating: Arrowleaf Sida ([1]; Postemergence, 62 g ai/ha): 50
Plant response rating: Arrowleaf Sida ([1]; Postemergence, 125 g ai/ha): 50
Plant response rating: Arrowleaf Sida ([1]; Postemergence, 250 g ai/ha): 70
Plant response rating: Arrowleaf Sida ([1]; Preemergence, 16 g ai/ha): 0
Plant response rating: Arrowleaf Sida ([1]; Preemergence, 31 g ai/ha): 0
Plant response rating: Arrowleaf Sida ([1]; Preemergence, 62 g ai/ha): 0
Plant response rating: Arrowleaf Sida ([1]; Preemergence, 125 g ai/ha): 0
Plant response rating: Arrowleaf Sida ([1]; Preemergence, 250 g ai/ha): 0
Plant response rating: Barnyardgrass ([2]; Postemergence, 16 g ai/ha): 0
Plant response rating: Barnyardgrass ([2]; Postemergence, 31 g ai/ha): 10
Plant response rating: Barnyardgrass ([2]; Postemergence, 62 g ai/ha): 20
Plant response rating: Barnyardgrass ([2]; Postemergence, 125 g ai/ha): 20
Plant response rating: Barnyardgrass ([2]; Postemergence, 250 g ai/ha): 65
Plant response rating: Barnyardgrass ([2]; Preemergence, 16 g ai/ha): 0
Plant response rating: Barnyardgrass ([2]; Preemergence, 31 g ai/ha): 20
Plant response rating: Barnyardgrass ([2]; Preemergence, 62 g ai/ha): 35
Plant response rating: Barnyardgrass ([2]; Preemergence, 125 g ai/ha): 80
Plant response rating: Barnyardgrass ([2]; Preemergence, 250 g ai/ha): 80
Plant response rating: Beggarticks ([3]; Postemergence, 16 g ai/ha): 20
Plant response rating: Beggarticks ([3]; Postemergence, 31 g ai/ha): 30
Plant response rating: Beggarticks ([3]; Postemergence, 62 g ai/ha): 30
Plant response rating: Beggarticks ([3]; Postemergence, 125 g ai/ha): 35
Plant response rating: Beggarticks ([3]; Postemergence, 250 g ai/ha): 55
Plant response rating: Beggarticks ([3]; Preemergence, 16 g ai/ha): 0
Plant response rating: Beggarticks ([3]; Preemergence, 31 g ai/ha): 0
Plant response rating: Beggarticks ([3]; Preemergence, 62 g ai/ha): 0
Plant response rating: Beggarticks ([3]; Preemergence, 125 g ai/ha): 5
Plant response rating: Beggarticks ([3]; Preemergence, 250 g ai/ha): 20
Plant response rating: Field Bindweed ([4]; Postemergence, 16 g ai/ha): 40
Plant response rating: Field Bindweed ([4]; Postemergence, 31 g ai/ha): 40
Plant response rating: Field Bindweed ([4]; Postemergence, 62 g ai/ha): 50
Plant response rating: Field Bindweed ([4]; Postemergence, 125 g ai/ha): 60
Plant response rating: Field Bindweed ([4]; Postemergence, 250 g ai/ha): 75
Plant response rating: Field Bindweed ([4]; Preemergence, 16 g ai/ha): 0
Plant response rating: Field Bindweed ([4]; Preemergence, 31 g ai/ha): 0
Plant response rating: Field Bindweed ([4]; Preemergence, 62 g ai/ha): 0
Plant response rating: Field Bindweed ([4]; Preemergence, 125 g ai/ha): 5
Plant response rating: Field Bindweed ([4]; Preemergence, 250 g ai/ha): 98
Plant response rating: Foxtail, Giant ([5]; 16 g ai/ha): 0
Plant response rating: Foxtail, Giant ([5]; 31 g ai/ha): 40
Plant response rating: Foxtail, Giant ([5]; 62 g ai/ha): 65
Plant response rating: Foxtail, Giant ([5]; 125 g ai/ha): 100
Plant response rating: Foxtail, Giant ([5]; 250 g ai/ha): 100
Plant response rating: Kochia ([6]; 16 g ai/ha): 70
Plant response rating: Kochia ([6]; 31 g ai/ha): 90
Plant response rating: Kochia ([6]; 62 g ai/ha): 95
Plant response rating: Kochia ([6]; 125 g ai/ha): 98
Plant response rating: Kochia ([6]; 250 g ai/ha): 98
Plant response rating: Morningglory ([7]; 16 g ai/ha): 0
Plant response rating: Morningglory ([7]; 31 g ai/ha): 35
Plant response rating: Morningglory ([7]; 62 g ai/ha): 60
Plant response rating: Morningglory ([7]; 125 g ai/ha): 65
Plant response rating: Morningglory ([7]; 250 g ai/ha): 70
Plant response rating: Nightshade ([8]; 16 g ai/ha): 0
Plant response rating: Nightshade ([8]; 31 g ai/ha): 80
Plant response rating: Nightshade ([8]; 62 g ai/ha): 98
Plant response rating: Nightshade ([8]; 125 g ai/ha): 98
Plant response rating: Nightshade ([8]; 250 g ai/ha): 98
Plant response rating: Panicum, Fall ([9]; Postemergence, 16 g ai/ha): 15
Plant response rating: Panicum, Fall ([9]; Postemergence, 31 g ai/ha): 20
Plant response rating: Panicum, Fall ([9]; Postemergence, 62 g ai/ha): 20
Plant response rating: Panicum, Fall ([9]; Postemergence, 125 g ai/ha): 30
Plant response rating: Panicum, Fall ([9]; Postemergence, 250 g ai/ha): 50
Plant response rating: Panicum, Fall ([9]; Preemergence, 16 g ai/ha): 80
Plant response rating: Panicum, Fall ([9]; Preemergence, 31 g ai/ha): 90
Plant response rating: Panicum, Fall ([9]; Preemergence, 62 g ai/ha): 98
Plant response rating: Panicum, Fall ([9]; Preemergence, 125 g ai/ha): 100
Plant response rating: Panicum, Fall ([9]; Preemergence, 250 g ai/ha): 100
Plant response rating: Pigweed, Palmer ([10]; Postemergence, 16 g ai/ha): 20
Plant response rating: Pigweed, Palmer ([10]; Postemergence, 31 g ai/ha): 20
Plant response rating: Pigweed, Palmer ([10]; Postemergence, 62 g ai/ha): 30
Plant response rating: Pigweed, Palmer ([10]; Postemergence, 125 g ai/ha): 80
Plant response rating: Pigweed, Palmer ([10]; Postemergence, 250 g ai/ha): 100
Plant response rating: Pigweed, Palmer ([10]; Preemergence, 16 g ai/ha): 0
Plant response rating: Pigweed, Palmer ([10]; Preemergence, 31 g ai/ha): 0
Plant response rating: Pigweed, Palmer ([10]; Preemergence, 62 g ai/ha): 25
Plant response rating: Pigweed, Palmer ([10]; Preemergence, 125 g ai/ha): 80
Plant response rating: Pigweed, Palmer ([10]; Preemergence, 250 g ai/ha): 100
Plant response rating: Ragweed ([11]; 16 g ai/ha): 0
Plant response rating: Ragweed ([11]; 31 g ai/ha): 0
Plant response rating: Ragweed ([11]; 62 g ai/ha): 10
Plant response rating: Ragweed ([11]; 125 g ai/ha): 35
Plant response rating: Ragweed ([11]; 250 g ai/ha): 80
Plant response rating: Ryegrass, Italian ([12]; Postemergence, 16 g ai/ha): 0
Plant response rating: Ryegrass, Italian ([12]; Postemergence, 31 g ai/ha): 0
Plant response rating: Ryegrass, Italian ([12]; Postemergence, 62 g ai/ha): 0
Plant response rating: Ryegrass, Italian ([12]; Postemergence, 125 g ai/ha): 0
Plant response rating: Ryegrass, Italian ([12]; Postemergence, 250 g ai/ha): 15
Plant response rating: Ryegrass, Italian ([12]; Preemergence, 16 g ai/ha): 20
Plant response rating: Ryegrass, Italian ([12]; Preemergence, 31 g ai/ha): 25
Plant response rating: Ryegrass, Italian ([12]; Preemergence, 62 g ai/ha): 25
Plant response rating: Ryegrass, Italian ([12]; Preemergence, 125 g ai/ha): 50
Plant response rating: Ryegrass, Italian ([12]; Preemergence, 250 g ai/ha): 75
Plant response rating: Sandbur ([13]; Postemergence, 16 g ai/ha): 10
Plant response rating: Sandbur ([13]; Postemergence, 31 g ai/ha): 20
Plant response rating: Sandbur ([13]; Postemergence, 62 g ai/ha): 20
Plant response rating: Sandbur ([13]; Postemergence, 125 g ai/ha): 35
Plant response rating: Sandbur ([13]; Postemergence, 250 g ai/ha): 75
Plant response rating: Sandbur ([13]; Preemergence, 16 g ai/ha): 0
Plant response rating: Sandbur ([13]; Preemergence, 31 g ai/ha): 5
Plant response rating: Sandbur ([13]; Preemergence, 62 g ai/ha): 40
Plant response rating: Sandbur ([13]; Preemergence, 125 g ai/ha): 70
Plant response rating: Sandbur ([13]; Preemergence, 250 g ai/ha): 98
Plant response rating: Velvetleaf ([14]; 16 g ai/ha): 0
Plant response rating: Velvetleaf ([14]; 31 g ai/ha): 0
Plant response rating: Velvetleaf ([14]; 62 g ai/ha): 20
Plant response rating: Velvetleaf ([14]; 125 g ai/ha): 25
Plant response rating: Velvetleaf ([14]; 250 g ai/ha): 70
Plant response rating: Waterhemp ([15]; Postemergence, 16 g ai/ha): 40
Plant response rating: Waterhemp ([15]; Postemergence, 31 g ai/ha): 50
Plant response rating: Waterhemp ([15]; Postemergence, 62 g ai/ha): 80
Plant response rating: Waterhemp ([15]; Postemergence, 125 g ai/ha): 85
Plant response rating: Waterhemp ([15]; Postemergence, 250 g ai/ha): 95
Plant response rating: Waterhemp ([15]; Preemergence, 16 g ai/ha): 75
Plant response rating: Waterhemp ([15]; Preemergence, 31 g ai/ha): 98
Plant response rating: Waterhemp ([15]; Preemergence, 62 g ai/ha): 98
Plant response rating: Waterhemp ([15]; Preemergence, 125 g ai/ha): 98
Plant response rating: Waterhemp ([15]; Preemergence, 250 g ai/ha): 98
